This note sets out measurements from patent US9029359B2, “Heteroaryl Btk inhibitors” (Biogen Idec MA, Inc., priority 2009, dated 2015).

The test has as its target T1, BTK (Homo sapiens, UniProt Q06187).
T1 construct: purchased Upstate 14-552
The test can be described thus: In vitro BTK kinase assay: BTK-POLYGAT-LS ASSAY. It counts as biochemical. Particulars: ATP 10 uM. In a few lines: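 BTK phosphorylation of polyGAT (100 nM final) with ATP at 10 μM final, 10 mM Tris-HCl pH 7.5 kinase buffer, quenched by EDTA after 30 min. Potency given as IC50.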

One may read the IC50 as the point on the concentration scale where inhibition reaches its midpoint. Lower therefore signals greater potency.

T1 sequence (Q06187 whole entry): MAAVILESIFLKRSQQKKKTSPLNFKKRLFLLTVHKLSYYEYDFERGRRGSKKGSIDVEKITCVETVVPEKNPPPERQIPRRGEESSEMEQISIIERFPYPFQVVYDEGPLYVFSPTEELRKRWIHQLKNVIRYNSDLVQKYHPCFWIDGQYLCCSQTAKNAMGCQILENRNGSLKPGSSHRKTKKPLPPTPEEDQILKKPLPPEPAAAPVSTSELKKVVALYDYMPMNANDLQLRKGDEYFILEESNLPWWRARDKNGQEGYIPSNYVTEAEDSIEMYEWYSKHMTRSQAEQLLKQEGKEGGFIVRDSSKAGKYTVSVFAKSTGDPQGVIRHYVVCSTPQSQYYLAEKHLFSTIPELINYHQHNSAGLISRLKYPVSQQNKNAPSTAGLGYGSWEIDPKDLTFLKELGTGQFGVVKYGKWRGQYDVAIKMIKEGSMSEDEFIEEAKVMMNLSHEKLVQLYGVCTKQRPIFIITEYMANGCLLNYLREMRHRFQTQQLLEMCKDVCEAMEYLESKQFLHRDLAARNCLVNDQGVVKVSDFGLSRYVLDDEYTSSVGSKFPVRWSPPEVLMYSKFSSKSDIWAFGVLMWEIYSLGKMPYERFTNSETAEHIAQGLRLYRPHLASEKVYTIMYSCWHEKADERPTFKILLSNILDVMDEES

Molecule `O=C(CNc1cc(F)c(F)cc1F)N[C@@H]1CCCN(c2ncnc3[nH]ccc23)C1` [Example 453] registered a half-inhibitory concentration (IC50) of 100 to 999 nM.
`O=C(CNc1ccc(F)cc1F)N[C@@H]1CCCN(c2ncnc3[nH]ccc23)C1` [Example 454] yielded an IC50 of 1000 to 10000 nM.
In turn, `COCCOc1ccc(C(F)(F)F)cc1NCC(=O)N[C@@H]1CCCN(c2ncnc3[nH]ccc23)C1` [Example 455] yielded a 50% inhibitory concentration (IC50) of 100 to 999 nM.
Regarding `CNS(=O)(=O)c1ccccc1NCC(=O)N[C@@H]1CCCN(c2ncnc3[nH]ccc23)C1` [Example 457], the IC50 lay in the range of 1000 to 10000 nM.
As for `O=C(CNC1c2ccccc2-c2ccccc21)N[C@@H]1CCCN(c2ncnc3[nH]ccc23)C1` [Example 459], the figure is 1000 to 10000 nM.
For `O=C(CNC(c1ccccc1)c1ccccc1)N[C@@H]1CCCN(c2ncnc3[nH]ccc23)C1` [Example 460] the value was 1000 to 10000 nM; for `Cc1cccc(NC(C(=O)NC2CCCN(c3ncnc4[nH]ccc34)C2)C2CCCC2)c1` (stereo not shown) [Example 461], 1000 to 10000 nM.
For the molecule `O=C(CNc1ccccc1)NC1CCCN(c2ncnc3[nH]cc(Cl)c23)C1` (stereo not shown) [Example 462], the IC50 was over 10000 nM.
Turning to `N#Cc1c(N)ncnc1N1CCCC(NC(=O)CNc2ccccc2)C1` (stereo not shown) [Example 463], the 50% inhibitory concentration (IC50) is over 10000 nM.
For `O=C(CNc1ccccc1)NC1CCCN(c2ncnc3[nH]cnc23)C1` (stereo not shown) [Example 464] the value was over 10000 nM.
